Assays:
A375P cell line = A375P cell line proliferation inhibitory activity (MTT assay); format: cell-based; details: A375P cells, 48 hours treatment
Experimental: A375P cell lines were purchased from ATCC and cultured in a DMEM culture medium (containing 10% FBS and 1% penicillin/streptomycin) in the presence of 5% CO2 at 37° C. The cultured A375P cell lines were taken from culture substrate with 0.05% trypsin-0.02% EDTA and plated at a density of 5×10^3 cells per well in 96-well plates.
(§1) In order to measure cell viability, MTT [3-(4,5-dimethylthiazole-2-yl)-2,5-diphenyltetrazolium bromide] activity assay method (Thiazolyl Blue Tetrazolium Bromide, Sigma Aldrich) was used. Cell lines were cultured in 96-well plates for 24 hours and treated with the compounds of Examples previously prepared. For the compound treatment, 10 mM stocks were prepared, serially diluted in DMSO and added by 0.5 μL at 8 points (final concentration of 0.5%). The cell lines in plates treated with the compounds was cultured for 48 hours, then 15 μL of dye was added to each well and cultured for 4 hours. Then, 100 μL of DMSO solvent was added to each well, and the formed solid was dissolved to measure the absorbance. The absorbance was read at a wavelength of 570 nm using EnVision 2103, and the GI 50 value was calculated using GraphPad Prism 4.0 software, and the results are shown in Table 1 below.

U937 cell line = U937 cell line proliferation inhibitory activity (MTT assay); format: cell-based; details: Homo sapiens, U-937, U937 cells
Experimental: as §1
U937 cell lines were purchased from ATCC and cultured in a RPMI culture medium (containing 10% FBS, 1% penicillin/streptomycin and 25 mM HEPES) in the presence of 5% CO2 at 37° C. The cell line proliferation inhibitory activity for Examples previously prepared was measured using the same MTT activity assay method as the A375P cell line proliferation inhibitory activity assay in Experimental Example 1.

Row | SMILES | GI50 (A375P cell line) | GI50 (U937 cell line)
1 | Cc1ccc(NC(=O)Nc2cccc(Cl)c2)cc1NC(=O)c1cnoc1C [Example 32, N-(5-(3-(3-chlorophenyl)ureido)-2-methylphenyl)-5-methylisoxazole-4-carboxamide] | 10 to 30 µM | 10 to 30 µM
2 | Cc1cn(-c2cc(C(=O)Nc3ccc(C)c(NC(=O)c4cnoc4C)c3)cc(C(F)(F)F)c2)cn1 [Example 11, 5-methyl-N-(2-methyl-5-(3-(4-methyl-1H-imidazol-1-yl)-5-(trifluoromethyl)benzamido)phenyl)isoxazole-4-carboxamide] | 10 to 30 µM | < 1 µM
3 | Cc1ccc(NC(=O)c2ccncc2)cc1NC(=O)c1cnoc1C [Example 20, N-(5-(isonicotinamido)-2-methylphenyl)-5-methylisoxazole-4-carboxamide] | 10 to 30 µM | 10 to 30 µM
4 | Cc1ccc(NC(=O)c2ccc(Cl)cc2)cc1NC(=O)c1cnoc1C [Example 7, N-(5-(4-chlorobenzamido)-2-methylphenyl)-5-methylisoxazole-4-carboxamide] | 10 to 30 µM | 10 to 30 µM
5 | Cc1ccc(NC(=O)Nc2ccc(Cl)c(Cl)c2)cc1NC(=O)c1cnoc1C [Example 34, N-(5-(3-(3,4-dichlorophenyl)ureido)-2-methylphenyl)-5-methylisoxazole-4-carboxamide] | 10 to 30 µM | 1 to 10 µM
6 | Cc1ccc(NC(=O)Cc2ccc(-c3ccccc3)cc2)cc1NC(=O)c1cnoc1C [Example 22, N-(5-(2-(biphenyl-4-yl)acetamido)-2-methylphenyl)-5-methylisoxazole-4-carboxamide] | 10 to 30 µM | 10 to 30 µM
7 | Cc1ccc(NC(=O)c2ccc(-c3ccccc3)cc2)cc1NC(=O)c1cnoc1C [Example 26, N-(5-biphenyl-4-ylcarboxamido-2-methylphenyl)-5-methylisoxazole-4-carboxamide] | 10 to 30 µM | 10 to 30 µM
8 | Cc1ccc(NC(=O)c2cccc(Cl)c2)cc1NC(=O)c1cnoc1C [Example 6, N-(5-(3-chlorobenzamido)-2-methylphenyl)-5-methylisoxazole-4-carboxamide] | 10 to 30 µM | 10 to 30 µM
9 | Cc1ccc(NC(=O)c2cc(N3CCOCC3)cc(C(F)(F)F)c2)cc1NC(=O)c1cnoc1C [Example 44, 5-methyl-N-(2-methyl-5-(3-morpholino-5-(trifluoromethyl)benzamido)phenyl)isoxazole-4-carboxamide] | 10 to 30 µM | < 1 µM
10 | CCCS(=O)(=O)Nc1ccc(NC(=O)c2cnoc2C)c(C)c1 [Example 43, 5-methyl-N-(2-methyl-4-(propylsulfonamido)phenyl)isoxazole-4-carboxamide] | 10 to 30 µM | 10 to 30 µM
11 | Cc1ccc(NC(=O)c2cnn(-c3ccccc3)c2C(F)(F)F)cc1NC(=O)c1cnoc1C [Example 23, 5-methyl-N-(2-methyl-5-(1-phenyl-5-(trifluoromethyl)-1H-pyrazole-4-carboxamido)phenyl)isoxazole-4-carboxamide] | 10 to 30 µM | < 1 µM
12 | Cc1cc(C)cc(C(=O)Nc2ccc(C)c(NC(=O)c3cnoc3C)c2)c1 [Example 24, N-(5-(3,5-dimethylbenzamido)-2-methylphenyl)-5-methylisoxazole-4-carboxamide] | 10 to 30 µM | 1 to 10 µM
13 | Cc1cc(NC(=O)Nc2cccc(Cl)c2)ccc1NC(=O)c1cnoc1C [Example 37, N-(4-(3-(3-chlorophenyl)ureido)-2-methylphenyl)-5-methylisoxazole-4-carboxamide] | 10 to 30 µM | 10 to 30 µM
14 | Cc1ccc(NC(=O)Nc2ccccc2F)cc1NC(=O)c1cnoc1C [Example 31, N-(5-(3-(2-fluorophenyl)ureido)-2-methylphenyl)-5-methylisoxazole-4-carboxamide] | 10 to 30 µM | 10 to 30 µM
15 | Cc1ccc(NC(=O)c2ccc3ccccc3n2)cc1NC(=O)c1cnoc1C [Example 12, 5-methyl-N-(2-methyl-5-(quinoline-2-carboxamido)phenyl)isoxazole-4-carboxamide] | 10 to 30 µM | 10 to 30 µM
16 | Cc1ccc(NC(=O)c2cc(N3CCN(C)CC3)cc(C(F)(F)F)c2)cc1NC(=O)c1cnoc1C [Example 3, 5-methyl-N-(2-methyl-5-(3-(4-methylpiperazin-1-yl)-5-(trifluoromethyl)benzamido)phenyl)isoxazole-4-carboxamide] | 10 to 30 µM | < 1 µM

Next, values leading:

Row | GI50 (A375P cell line) | GI50 (U937 cell line) | SMILES
17 | 10 to 30 µM | 10 to 30 µM | CC(=O)N1CCC(C(=O)Nc2ccc(C)c(NC(=O)c3cnoc3C)c2)CC1 [Example 15, N-(5-(1-acetylpiperidine-4-carboxamido)-2-methylphenyl)-5-methylisoxazole-4-carboxamide]
18 | 10 to 30 µM | 10 to 30 µM | Cc1cc(NC(=O)Nc2cccc(C(F)(F)F)c2)ccc1NC(=O)c1cnoc1C [Example 36, 5-methyl-N-(2-methyl-4-(3-(3-(trifluoromethyl)phenyl)ureido)phenyl)isoxazole-4-carboxamide]
19 | 10 to 30 µM | 10 to 30 µM | Cc1ccc(NC(=O)C(c2ccc(Cl)cc2)c2ccc(Cl)cc2)cc1NC(=O)c1cnoc1C [Example 13, N-(5-(2,2-bis(4-chlorophenyl)acetamido)-2-methylphenyl)-5-methylisoxazole-4-carboxamide]
20 | 10 to 30 µM | 10 to 30 µM | Cc1ccc(NC(=O)C2Cc3ccccc3N2)cc1NC(=O)c1cnoc1C (stereo not drawn) [Example 19, N-(5-(indoline-2-carboxamido)-2-methylphenyl)-5-methylisoxazole-4-carboxamide]
21 | 10 to 30 µM | 10 to 30 µM | Cc1cc(NC(=O)Nc2ccccc2F)ccc1NC(=O)c1cnoc1C [Example 38, N-(4-(3-(2-fluorophenyl)ureido)-2-methylphenyl)-5-methylisoxazole-4-carboxamide]
22 | 10 to 30 µM | 10 to 30 µM | Cc1cc(NC(=O)Nc2cc(Cl)cc(Cl)c2)ccc1NC(=O)c1cnoc1C [Example 41, N-(4-(3-(3,5-dichlorophenyl)ureido)-2-methylphenyl)-5-methylisoxazole-4-carboxamide]
23 | 10 to 30 µM | 10 to 30 µM | Cc1cc(NC(=O)Nc2ccc(Cl)cc2)ccc1NC(=O)c1cnoc1C [Example 39, N-(4-(3-(4-chlorophenyl)ureido)-2-methylphenyl)-5-methylisoxazole-4-carboxamide]
24 | 10 to 30 µM | 10 to 30 µM | Cc1ccc(NC(=O)c2ccccc2Sc2ccccc2C#N)cc1NC(=O)c1cnoc1C [Example 21, N-(5-(2-(2-cyanophenylthio)benzamido)-2-methylphenyl)-5-methylisoxazole-4-carboxamide]
25 | 10 to 30 µM | 10 to 30 µM | Cc1ccc(NC(=O)Nc2cccc(C(F)(F)F)c2)cc1NC(=O)c1cnoc1C [Example 29, 5-methyl-N-(2-methyl-5-(3-(3-(trifluoromethyl)phenyl)ureido)phenyl)isoxazole-4-carboxamide]
26 | 10 to 30 µM | 10 to 30 µM | Cc1cc(NC(=O)c2cc(N3CCN(C)CC3)cc(C(F)(F)F)c2)ccc1NC(=O)c1cnoc1C [Example 2, 5-methyl-N-(2-methyl-4-(3-(4-methylpiperazin-1-yl)-5-(trifluoromethyl)benzamido)phenyl)isoxazole-4-carboxamide]
27 | 10 to 30 µM | 10 to 30 µM | Cc1ccc(NC(=O)c2ccccc2-c2ccccc2)cc1NC(=O)c1cnoc1C [Example 25, N-(5-biphenyl-2-ylcarboxamido-2-methylphenyl)-5-methylisoxazole-4-carboxamide]
28 | 10 to 30 µM | 10 to 30 µM | Cc1ccc(NC(=O)c2cnccn2)cc1NC(=O)c1cnoc1C [Example 17, 5-methyl-N-(2-methyl-5-(pyrazine-2-carboxamido)phenyl)isoxazole-4-carboxamide]
29 | 10 to 30 µM | 10 to 30 µM | Cc1cc(NC(=O)c2ccc(N3CCOCC3)c(C(F)(F)F)c2)ccc1NC(=O)c1cnoc1C [Example 1, 5-methyl-N-(2-methyl-4-(4-morpholino-3-(trifluoromethyl)benzamido)phenyl)isoxazole-4-carboxamide]
30 | 10 to 30 µM | 10 to 30 µM | Cc1ccc(NC(=O)c2ccc3[nH]nnc3c2)cc1NC(=O)c1cnoc1C [Example 18, N-(5-(1H-benzo[d][1,2,3]triazole-5-carboxamido)-2-methylphenyl)-5-methylisoxazole-4-carboxamide]
31 | 10 to 30 µM | < 1 µM | Cc1ccc(NC(=O)c2cc(-n3ccnc3C)cc(C(F)(F)F)c2)cc1NC(=O)c1cnoc1C [Example 9, 5-methyl-N-(2-methyl-5-(3-(2-methyl-1H-imidazol-1-yl)-5-(trifluoromethyl)benzamido)phenyl)isoxazole-4-carboxamide]
32 | 1 to 10 µM | 10 to 30 µM | Cc1cc(NC(=O)Nc2ccc(Cl)c(Cl)c2)ccc1NC(=O)c1cnoc1C [Example 40, N-(4-(3-(3,4-dichlorophenyl)ureido)-2-methylphenyl)-5-methylisoxazole-4-carboxamide]
33 | 10 to 30 µM | 10 to 30 µM | Cc1cc(NC(=O)Nc2ccc(Cl)c(C(F)(F)F)c2)ccc1NC(=O)c1cnoc1C [Example 35, N-(4-(3-(4-chloro-3-(trifluoromethyl)phenyl)ureido)-2-methylphenyl)-5-methylisoxazole-4-carboxamide]

Reference: patent US9789086B1, “N-(5-arylamido-2-methylphenyl)-5-methylisooxazole-4-carboxamide deravative, pharmaceutical acceptable salt thereof, method for preparation therof and FMS kinase inhibitor comprising the same as anactive ingredient” (Industry-University Cooperation Foundation Hanyang …, priority 2014, dated 2017)
